According to US9005644B2, “Pesticidal compositions” (BASF Corporation, priority 2008, dated 2015):
Where “and” joins values, the source holds several entries; their conditions need not be identical. Equal entries are not always repeated.

How the values were obtained:
German cockroaches = assay: Topical toxicity evaluation on adult German cockroaches, mortality (dead/moribund) at 24 hours; type: in vivo, Blattella germanica (German cockroach); conditions: for # dead at 24 h / Proportion dead at 24 h: amounts in label
Method: Toxicity evaluations were performed on 7-14 day old adult male and female German cockroaches (SCJ Strain, S.C. Johnson & Son, Racine, Wis.). Approximately 12 cockroaches were transferred to individual 100×20 mm polystyrene Petri dishes and anesthetized with a 15-25 second exposure to carbon dioxide. The inside edge of each Petri dish was lightly coated with mineral oil plus petroleum jelly in a 1:3 (wt/wt) ratio to minimize escape. Anesthetized cockroaches were positioned with their ventral side up, and a 1 μl drop of the diluted test composition was applied to the area between the meso- and metathoracic legs using a Rainin L-10, 10 μl capacity pipette (Rainin Instrument, LLC, Oakland, Calif.). Five replications of 12 male cockroaches were done for each test composition. Separate tests were done using female cockroaches. Results were evaluated at 24 hours following treatment. Cockroaches were scored as either alive (dorsal side up, active movement when abdomen prodded with dissecting probe) or moribund/dead (dorsal side up and no movement when abdomen prodded or ventral side up and insect unable to right itself).
The compositions comprising alcohol and/or mineral oil are described in Table 13.

cockroaches = assay: LD50 and LD10 determination for cockroaches (dose-response mortality, probit analysis); type: in vivo; conditions: for LD10 mg/insect / LD50 mg/insect: cockroaches, probit analysis
Method: In this example, various mineral oils and alcohols were tested to determine, for cockroaches, the LD50 and LD10 for each.
PD23 and PD28 mineral oils were obtained from Sonneborn LLC, Mahwah, N.J. The physical properties of these oils are shown in Table 11. Each mineral oil was tested to determine the LD50 and LD10 (Table 12).
The tested alcohols were obtained from Sigma-Aldrich Corp., St. Louis, Mo. Each alcohol was tested to determine the LD50 and LD10 (Table 12).

[1] = Table 18, Exxsol D95 mineral oil

SMILES | # dead at 24 h (German cockroaches; Table 13, per replicate (# treated 10-16), listed as 1-butanol (0.8 mg)) | Proportion dead at 24 h (German cockroaches; Table 13, per replicate, listed as 1-butanol (0.8 mg)) | # dead at 24 h (German cockroaches; Table 14, composite data) | Proportion dead at 24 h (German cockroaches; Table 14, composite data) | LD10 mg/insect (cockroaches) [mg/insect] | LD50 mg/insect (cockroaches) [mg/insect] | # dead at 24 h (German cockroaches; Table 13, per replicate (# treated 10-16), listed as 1-propanol (0.45 mg)) | Proportion dead at 24 h (German cockroaches; Table 13, per replicate, listed as 1-propanol (0.45 mg)) | # dead at 24 h (German cockroaches; [1]) | Proportion dead at 24 h (German cockroaches; [1]) | synergy with EXXSOL D95 (German cockroaches; alone and in combination with Exxsol D95 mineral oil) | LD10 (cockroaches; as detailed in Example 9) [mg/insect] | # dead at 24 h (German cockroaches; Table 13, per replicate (# treated 10-16), listed as 2-butanol (0.8 mg)) | Proportion dead at 24 h (German cockroaches; Table 13, per replicate, listed as 2-butanol (0.8 mg)) | # dead at 24 h (German cockroaches; Table 17, composite data) | Proportion dead at 24 h (German cockroaches; Table 17, composite data)
CCCCO [Composition 1-butanol, 1-butanol] | 0 (2×) and 1 | 0.000 (2×) and 0.100 | 1 | 0.029 | 0.877 | 1.018 |  |  |  |  |  |  |  |  |  | 
CCCO [Composition 1-propanol, 1-propanol] |  |  | 1 | 0.028 | 0.472 | 0.557 | 1 and 0 (2×) | 0.083 and 0.000 (2×) | 1 | 0.028 | significant synergy | 0.472 |  |  |  | 
CCC(C)O (stereo not drawn) [Composition 2-butanol, 2-butanol] |  |  | 1 | 0.026 | 0.881 | 1.188 |  |  |  |  |  |  | 0 (2×) and 1 | 0.000 (2×) and 0.083 |  | 
CCC(C)=O [2-butanone] |  |  |  |  |  |  |  |  |  |  |  |  |  |  | 3 | 0.083
